Test results published in paper PMC11218997, “Human cytomegalovirus deploys molecular mimicry to recruit VPS4A to sites of virus assembly” (PLOS Pathogens, 2024).
Where a SMILES comes first, the peptide text is derived from it.

Legend:
[1] = molecular target: T1, human VPS4 MIT domain (residues 1–84) (Homo sapiens, UniProt Q9UN37); test: Isothermal titration calorimetry, titrant into VPS4A MIT domain; format: binding; details: ITC, 25°C; for -TΔS / N (stoichiometry) / ΔG / ΔH: n = 2–4
T1 construct: The MIT domain (residues 1–84) of human VPS4A (UniProt Q9UN37); GST with human rhinovirus 3C cleavage site (N, cleaved yes); made in house; host or cells: Escherichia coli T7 Express lysY/Iq
T1 sequence (Q9UN37 1-84): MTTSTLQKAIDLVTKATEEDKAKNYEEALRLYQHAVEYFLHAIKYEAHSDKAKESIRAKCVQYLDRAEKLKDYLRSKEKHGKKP
Experimental: Proteins were expressed in Escherichia coli T7 Express lysY/I^q cells (New England Biolabs) in 2×TY medium at 37°C to an OD600 of 0.8–1.2 before inducing protein expression by addition of 0.4 mM isopropyl β-D-thiogalactopyranoside (IPTG). Expression of GST-tagged pUL71 truncations was induced at 37°C for 3 h, whereas expression of GST-VPS4A MIT domain was induced at 22°C for 16 h. Cells were resuspended at 4°C in GSH lysis buffer (20 mM Tris pH 7.5, 300 mM NaCl, 0.5 mM MgCl2, 1.4 mM β-mercaptoethanol, 0.05% TWEEN-20) supplemented with 200–400 U bovine DNase I (Merck) and 200 μL EDTA-free protease inhibitor cocktail (Merck) before lysis using a TS series cell disruptor (Constant Systems) at 24 kpsi. Lysates were cleared by centrifugation (40,000×g, 30 min, 4°C) and incubated with glutathione Sepharose 4B (Cytiva) for 1 h at 4°C before extensive washing (≥ 20 column volumes) with GSH wash buffer (20 mM Tris pH 7.5, 300 mM NaCl, 1 mM DTT) and elution using wash buffer supplemented with 25 mM reduced L-glutathione. GST-tagged pUL71 truncations were subjected to size-exclusion chromatography (SEC) using a Superdex 200 16/600 column (Cytiva) equilibrated in GSH wash buffer. For GST-VPS4A MIT domain, the GST tag was removed by supplementing the pooled SEC fractions containing the protein of interest with 0.5 mM EDTA and incubating overnight at 4°C with 50 μg of GST-tagged human rhinovirus 3C protease. Free GST and uncleaved GST-VPS4A MIT domain were captured using glutathione Sepharose and the cleaved complex was subjected to SEC using an S75 10/300 GL column (Cytiva) equilibrated in 50 mM HEPES pH 8, 100 mM NaCl, 0.5 mM Tris(2-carboxyethyl)phosphine (TCEP).
Where necessary, proteins were exchanged into ITC buffer (50 mM HEPES pH 8, 100 mM NaCl, 0.5 mM TCEP) by SEC using Superdex 200 (GST-tagged titrants) or 75 (VPS4 MIT domain) 10/300 GL columns (Cytiva), or by extensive dialysis using tubing with a 3.5 kDa molecular weight cut-off (Pierce). Protein concentrations were estimated from A280 using extinction coefficients calculated from the protein sequence. Peptides encoding residues 166–181 of human CHMP6 or various truncations of HCMV pUL71 were purchased from Genscript at >95% purity and the dry peptides were resuspended in ITC buffer to the desired concentration. ITC experiments were performed at 25°C using an MicroCal PEAQ-ITC automated calorimeter (Malvern Panalytical). Titrants (GST-pUL71, GST-CHMP6 or peptides) were titrated into VPS4A MIT domain using either 19×2 μL or 12×3 μL injections (S1 Table). Data were analysed using the MicroCal PEAQ-ITC analysis software (Malvern Panalytical) and fitted using a one-site binding model.
S1 Table. Thermodynamic properties of the interactions with VPS4 MIT domain. As quantitated by isothermal titration calorimetry (ITC). Data for independent experiments are shown. For all, the cell contained human VPS4 MIT domain (residues 1-84) and pUL71 is from HCMV unless stated otherwise. –, no binding detected.

[2] = molecular target: VPS4A MIT domain (residues 1–84) (human) (UniProt Q9UN37); test: ITC; titrants (GST-pUL71, GST-CHMP6 or peptides) titrated into VPS4A MIT domain in the cell; 25°C; 50 mM HEPES pH 8, 100 mM NaCl, 0.5 mM TCEP; 19×2 μL or 12×3 μL injections; one-site binding model
yeast Vps4 = details: reported; cited from earlier work

Molecule: CC[C@H](C)[C@H](NC(=O)[C@H](CCC(N)=O)NC(=O)[C@@H](N)CCC(=O)O)C(=O)N[C@@H](CCC(=O)O)C(=O)N[C@@H](CC(C)C)C(=O)N1CCC[C@H]1C(=O)N[C@@H](CCC(=O)O)C(=O)N[C@H](C(=O)N1CCC[C@H]1C(=O)N[C@@H](CO)C(=O)N[C@@H](CCC(=O)O)C(=O)N1CCC[C@H]1C(=O)N[C@@H](CC(C)C)C(=O)N1CCC[C@H]1C(=O)N[C@@H](CCC(=O)O)C(=O)N[C@@H](CCCCN)C(=O)O)C(C)C [CHMP6 peptide] (H-EQIELPEVPSEPLPEK-OH; N-terminus and C-terminus assumed)
- -TΔS ([1]; pH 8, mean ± SD): -5.52 ± 0.58 kcal/mol
- N (stoichiometry) ([1]; pH 8, mean ± SD): 1.02 ± 0.17
- ΔG ([1]; pH 8, mean ± SD): -6.85 ± 0.38 kcal/mol
- ΔH ([1]; pH 8, mean ± SD): -1.33 ± 0.51 kcal/mol
- -T∆S ([1]; replicate 1, pH 8): -6.36 kcal/mol
- N (sites) ([1]; replicate 1, pH 8): 1
- ∆G ([1]; replicate 1, pH 8): -7.2 kcal/mol
- ∆H ([1]; replicate 1, pH 8): -0.844 kcal/mol
- -T∆S ([1]; replicate 2, pH 8): -5.11 kcal/mol
- N (sites) ([1]; replicate 2, pH 8): 0.79
- ∆G ([1]; replicate 2, pH 8): -7.15 kcal/mol
- ∆H ([1]; replicate 2, pH 8): -2.04 kcal/mol
- -T∆S ([1]; replicate 3, pH 8): -5.14 kcal/mol
- N (sites) ([1]; replicate 3, pH 8): 1.1
- ∆G ([1]; replicate 3, pH 8): -6.46 kcal/mol
- ∆H ([1]; replicate 3, pH 8): -1.32 kcal/mol
- -T∆S ([1]; replicate 4, pH 8): -5.46 kcal/mol
- N (sites) ([1]; replicate 4, pH 8): 1.17
- ∆G ([1]; replicate 4, pH 8): -6.57 kcal/mol
- ∆H ([1]; replicate 4, pH 8): -1.1 kcal/mol

Molecule: CC[C@H](C)[C@H](NC(=O)[C@@H](N)CCC(=O)O)C(=O)N[C@@H](CC(=O)O)C(=O)N1CCC[C@H]1C(=O)N[C@@H](CC(C)C)C(=O)N[C@@H](CC(C)C)C(=O)N[C@@H](Cc1c[nH]cn1)C(=O)N[C@@H](CCC(N)=O)C(=O)N[C@@H](CCC(=O)O)C(=O)N[C@H](C(=O)NCC(=O)N[C@@H](CC(C)C)C(=O)N[C@@H](Cc1ccc(O)cc1)C(=O)N[C@@H](CCC(N)=O)C(=O)N[C@@H](C)C(=O)N[C@@H](CC(C)C)C(=O)N1CCC[C@H]1C(=O)N[C@@H](CC(N)=O)C(=O)N[C@@H](C)C(=O)N[C@H](C(=O)N[C@H](C(=O)N[C@@H](CCC(=O)O)C(=O)N[C@@H](C)C(=O)N1CCC[C@H]1C(=O)N[C@@H](CO)C(=O)N[C@@H](CCC(=O)O)C(=O)O)[C@@H](C)O)C(C)C)[C@@H](C)O [HHV6 pUL71 peptide] (H-EIDPLLHQETGLYQALPNAVTEAPSE-OH; N-terminus and C-terminus assumed)
- -TΔS ([1]; pH 8, mean ± SD): 1.01 ± 1.62 kcal/mol
- N (stoichiometry) ([1]; pH 8, mean ± SD): 1.18 ± 0.03
- ΔG ([1]; pH 8, mean ± SD): -6.16 ± 0.11 kcal/mol
- ΔH ([1]; pH 8, mean ± SD): -7.17 ± 1.52 kcal/mol
- -T∆S ([1]; replicate 1, pH 8): -0.117 kcal/mol
- N (sites) ([1]; replicate 1, pH 8): 1.16
- ∆G ([1]; replicate 1, pH 8): -6.26 kcal/mol
- ∆H ([1]; replicate 1, pH 8): -6.14 kcal/mol
- -T∆S ([1]; replicate 2, pH 8): 0.27 kcal/mol
- N (sites) ([1]; replicate 2, pH 8): 1.22
- ∆G ([1]; replicate 2, pH 8): -6.18 kcal/mol
- ∆H ([1]; replicate 2, pH 8): -6.45 kcal/mol
- -T∆S ([1]; replicate 3, pH 8): 2.87 kcal/mol
- N (sites) ([1]; replicate 3, pH 8): 1.17
- ∆G ([1]; replicate 3, pH 8): -6.04 kcal/mol
- ∆H ([1]; replicate 3, pH 8): -8.91 kcal/mol

Molecule: CC[C@H](C)[C@H](NC(=O)[C@H](CCC(=O)O)NC(=O)[C@H](CCCNC(=N)N)NC(=O)[C@H](CCC(=O)O)NC(=O)[C@H](Cc1c[nH]cn1)NC(=O)[C@H](CC(N)=O)NC(=O)[C@@H](NC(=O)[C@@H]1CCCN1)[C@@H](C)O)C(=O)N[C@@H](CC(C)C)C(=O)N[C@@H](CC(=O)O)C(=O)N[C@@H](CC(C)C)C(=O)N[C@@H](CCSC)C(=O)N[C@@H](CCCNC(=N)N)C(=O)N[C@@H](Cc1c[nH]cn1)C(=O)N[C@@H](CO)C(=O)N1CCC[C@H]1C(=O)N[C@@H](CC(=O)O)C(=O)N[C@H](C(=O)N1CCC[C@H]1C(=O)N[C@@H](CCCNC(=N)N)C(=O)N[C@@H](CCC(=O)O)C(=O)N[C@@H](C)C(=O)N[C@H](C(=O)N[C@@H](CCSC)C(=O)N[C@@H](CO)C(=O)N1CCC[C@H]1C(=O)O)C(C)C)C(C)C [pUL71 (300–325) peptide] (H-PTNHEREILDLMRHSPDVPREAVMSP-OH)
- Kd ([1]; 50 mM HEPES pH 8, 100 mM NaCl, 0.5 mM TCEP, one-site model, mean ± SD, n = 2–4 independent experiments): 5.59 ± 0.34 µM

Molecule: CHMP6 MIM2 peptide (from UniProt Q96FZ7 166-181)
- Kd [2]: 11.2 µM
- dH [2]: -1.33 kcal/mol
- stoichiometry N [2]: 1.02

Molecule: GST-CHMP6: GST-tagged CHMP6 MIM2 motif (residues 168–181)
- -TΔS ([1]; pH 8, mean ± SD): -4.81 ± 0.62 kcal/mol
- ΔG ([1]; pH 8, mean ± SD): -7.18 ± 0.12 kcal/mol
- -T∆S ([1]; replicate 1, pH 8): -5.25 kcal/mol
- Kd ([1]; replicate 1, pH 8): 4.76 µM
- N (sites) ([1]; replicate 1, pH 8): 0.786
- ∆G ([1]; replicate 1, pH 8): -7.26 kcal/mol
- ∆H ([1]; replicate 1, pH 8): -2.02 kcal/mol
- -T∆S ([1]; replicate 2, pH 8): -4.37 kcal/mol
- Kd ([1]; replicate 2, pH 8): 6.32 µM
- N (sites) ([1]; replicate 2, pH 8): 0.894
- ∆G ([1]; replicate 2, pH 8): -7.09 kcal/mol
- ∆H ([1]; replicate 2, pH 8): -2.72 kcal/mol

Molecule: GST-pUL71 (283–336) (domain or fragment)
- Kd [2]: 3.02 µM
- dH [2]: -10.1 kcal/mol
- stoichiometry N [2]: 0.91

Molecule: GST-pUL71 (300–325) (domain or fragment)
- Kd [2]: 2.25 µM
- dH [2]: -6.66 kcal/mol
- stoichiometry N [2]: 1.22

Molecule: GST-pUL71 (300–361) (domain or fragment)
- Kd [2]: 2.98 µM
- dH [2]: -10.1 kcal/mol
- stoichiometry N [2]: 0.87

Molecule: GST-pUL71(283–361) (domain or fragment)
- Kd [2]: 2.84 µM
- dH [2]: -9.05 kcal/mol
- stoichiometry N [2]: 1

Molecule: HHV6 pU44 vMIM2 peptide (residues 174–199) (from UniProt A0A140AK71 174-199)
- Kd [2]: 30.9 µM
- dH [2]: -7.17 kcal/mol
- stoichiometry N [2]: 1.18

Molecule: pUL71 (300–325) peptide
- dH [2]: -6.22 kcal/mol
- stoichiometry N [2]: 1.38

B1: Vfa1: yeast protein Vfa1 that is proposed to positively regulate Vps4 activity (protein, UniProt P40080 1-203, looked up)
VPS4-associated protein 1: MINEYVARKVALKDMQPCAICSKPSTTVLYNASGPDWLYTCEIHLQDNPQFVIPLYSTEYNEAVAQLKLVKGKMDSLTSAQTQLGSWDGWVTKIFSKKEKETNNSKDPDPTTTDSTDTSPQAKNDAEILSETKKQYSKILDKVTELQRKNRKYELAKIMFESRLLRKRTEQVNRERYLKEQENYSNTDPEELLRKHVFPSVPK
- Kd (yeast Vps4): 1.8 µM
- fold tighter binding to Vps4 than Vps20 (yeast Vps4): approximately 100 fold

B2: Vps20: the yeast CHMP6 homologue (protein, UniProt Q04272 2-221, looked up)
Vacuolar protein …: GQKSSKVHITKTDRAILEVKRSKDEIHKFTRRTDNLILVEKSQLKDLIRKNPENYKSNMKVRFLLKRIHYQEHLLQQASDQLINLENMVSTLEFKMVEKQFINGLKNGNEILKKLNKEFSNVDELMDDVQDQIAYQNEINETLSRSLVGTSNYEDDLDKELDALESELNPEKMNNAKVANMPSTEGLPSLPQGEQTEQKEREEFATEERSDTKEPLALLS
- Kd (yeast Vps4): 188 µM
